Reference: the supplement of paper PMC5579334

Key:
S1507-2 [1] = assay: relative IC50 (inflection point of fitted dose-response curve, CellTox-Green cytotoxicity, 72 h; top asymptote may be below 50%); higher = less potent
Method in brief: (§1)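 MPNST cell lines and primary human Schwann cells were incubated 72 h at 37 °C in 384-well plates holding five 10-fold compound dilutions. CellTox-Green was added before seeding at a final 1:1000 dilution and reported fluorescence from DNA released by disrupted cells. Signals were scaled to vehicle and positive-control wells, and cultures failing plate quality control were dropped. Drug sensitivity score and relative IC50 come from four-parameter logistic fits, with IC50 censored at the top concentration.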

HSC1 [2] = assay: as above
Method in brief: as §1

HSC2 [3] = assay: as above
Method in brief: as §1

STS26T [4] = assay: as above
Method in brief: as §1

HS-PSS [5] = assay: as above
Method in brief: as §1

ST8814 [6] = assay: as above
Method in brief: as §1

S1507-2 [7] = assay: relative IC50 (inflection point of fitted dose-response curve, CellTiter-Glo viability, 72 h; top asymptote may be below 50% inhibition); higher = less potent
Method in brief: (§2)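 Viability was scored by CellTiter-Glo ATP luminescence, scaled from vehicle to positive-control wells, with duplicates averaged where present. The cells, MPNST lines and primary human Schwann cells at 750–1000 per well, sat 72 h at 37 °C, 5% CO2, in 384-well plates preprinted with each compound at five concentrations in 10-fold steps. Four-parameter logistic fits were run on the data. These fits give drug sensitivity score and relative IC50 censored at the top concentration, and percent inhibition is reported at the top concentration.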

HSC1 [8] = assay: as above
Method in brief: as §2

HSC2 [9] = assay: as above
Method in brief: as §2

HS-Sch-2 = assay: as above
Method in brief: as §2

STS26T [10] = assay: as above
Method in brief: as §2

HS-PSS [11] = assay: as above
Method in brief: as §2

YST-1 = assay: as above
Method in brief: as §2

S462 = assay: as above
Method in brief: as §2

ST8814 [12] = assay: as above
Method in brief: as §2

Structure (SMILES) | relative IC50 (S1507-2 [1]) [nM] | relative IC50 (HSC1 [2]) [nM] | relative IC50 (HSC2 [3]) [nM] | relative IC50 (STS26T [4]) [nM] | relative IC50 (HS-PSS [5]) [nM] | relative IC50 (ST8814 [6]) [nM] | relative IC50 (S1507-2 [7]) [nM] | relative IC50 (HSC1 [8]) [nM] | relative IC50 (HSC2 [9]) [nM] | relative IC50 (HS-Sch-2) [nM] | relative IC50 (STS26T [10]) [nM] | relative IC50 (HS-PSS [11]) [nM] | relative IC50 (YST-1) [nM] | relative IC50 (S462) [nM] | relative IC50 (ST8814 [12]) [nM]
NS(=O)(=O)OC[C@@H]1C[C@@H](n2ccc3c(N[C@H]4CCc5ccccc54)ncnc32)C[C@@H]1O [Pevonedistat] | 291 | 737 | 1220 | 137 | 222 | 201 | 208 | 513 | 380 | 46.8 | 520 | 89.6 | 128 | 95.2 | 187
O=C(CCBr)N1CCN(C(=O)CCBr)CC1 [Pipobroman] | > 10000 | > 10000 | > 10000 | > 10000 | > 10000 | > 10000 | > 10000 | > 10000 | > 10000 | > 10000 | > 10000 | > 10000 | > 10000 | > 10000 | > 10000
Cn1cc(CNCC2CCN(c3ncc(C(=O)NO)cn3)CC2)c2ccccc21 [Quisinostat] | 44.8 | 208 | 226 | 105 | 131 | 56.1 | 18.3 | 34.5 | 56.8 | 45.5 | 43.4 | 42.8 | 8.58 | 20.4 | 16.6
CNC(=O)c1cc(Oc2ccc(NC(=O)Nc3cc(C(C)(C)C)nn3-c3ccc4ncccc4c3)c(F)c2)ccn1 [Rebastinib] | > 1000 | > 1000 | > 1000 | > 1000 | > 1000 | > 1000 | > 1000 | > 1000 | > 1000 | > 1000 | > 1000 | > 1000 | > 1000 | > 1000 | > 1000
CO[C@H]1C[C@@H]2CC[C@@H](C)[C@@](O)(O2)C(=O)C(=O)N2CCCC[C@H]2C(=O)O[C@H]([C@H](C)C[C@@H]2CC[C@@H](OP(C)(C)=O)[C@H](OC)C2)CC(=O)[C@H](C)/C=C(\C)[C@@H](O)[C@@H](OC)C(=O)[C@H](C)C[C@H](C)/C=C/C=C/C=C/1C [Ridaforolimus] | > 100 | > 100 | > 100 | > 100 | > 100 | > 100 | 1.55 | 0.221 | 0.319 | 2.85 | 0.663 | 1.87 | 1.02 | 1.26 | 0.496
CC(C)(C)c1cnc(CSc2cnc(NC(=O)C3CCNCC3)s2)o1 [SNS-032] | > 10000 | 11.9 | 6.74 | 15.9 | 2450 | 27.2 | 141 | 5.57 | 3.76 | 48.5 | 21 | 26.7 | 38.3 | 10.4 | 46.6
O=[N+]([O-])c1ccc2c(c1)S(=O)(=O)C=C2 [Stattic] | 15900 | 2450 | 7900 | 2270 | 2870 | 4720 | 9570 | 1880 | 3040 | 1420 | 2990 | 1390 | 1740 | 4990 | 2410
Nc1nc(NC2CC2)cc(-c2cccc(Cl)c2Cl)n1 [TH588] | 4040 | 4520 | 3820 | 3540 | > 25000 | 5560 | 4360 | 5430 | 4280 | 4160 | 3710 | 3820 | 3620 | 6910 | 3830
C=CCNC1=C2C[C@@H](C)C[C@H](OC)[C@H](O)[C@@H](C)/C=C(\C)[C@H](OC(N)=O)[C@@H](OC)/C=C\C=C(/C)C(=O)NC(=CC1=O)C2=O [Tanespimycin] | 397 | 321 | 258 | 160 | 460 | 729 | 170 | 421 | 380 | 128 | 108 | 157 | 49.4 | 310 | 158
COc1cc([C@@H]2c3cc4c(cc3[C@@H](O[C@@H]3O[C@@H]5CO[C@@H](c6cccs6)O[C@H]5[C@H](O)[C@H]3O)[C@H]3COC(=O)[C@H]23)OCO4)cc(OC)c1O [Teniposide] | 1410 | 1150 | 1430 | 266 | 3010 | 219 | 314 | 68.8 | 88.5 | 482 | 227 | 1240 | 50.1 | 112 | 193
CC[C@@]1(O)C(=O)OCc2c1cc1n(c2=O)Cc2cc3c(CN(C)C)c(O)ccc3nc2-1 [Topotecan] | 550 | 50.8 | 237 | 197 | 869 | 23.3 | 173 | 123 | 90.9 | 136 | 202 | 323 | 44.1 | 52.4 | 42.5
